system: YAP-TEAD; test: TEAD inhibition, Hippo Pathway TEAD Reporter MCF-7 luciferase assay; type: cell-based; details: Homo sapiens, MCF7, 24 h, Hippo Pathway TEAD Reporter MCF-7 cells, luciferase activity after 24 h; read-out: IC50 of the test compounds on YAP-TEAD inhibition (Group)
Method in brief: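 IC50 derived from ONE-Glo luciferase luminescence after 24 h compound exposure (11 concentrations in quadruplicate, 0.1% DMSO control). Reporter: MCF-7 line expressing firefly luciferase under TEAD elements, constitutively activated by nuclear YAP1.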

Structure (SMILES) | IC50
COc1ccc(O[C@H]2CC[C@@H](C(F)(F)F)CC2)cc1NC(=O)[C@@H]1CCC(=O)N1C [Compound 210, (S)—N-(2-Methoxy-5-(((cis)-4-(trifluoromethyl)cyclohexyl)oxy)phenyl)-1-methyl-5-oxopyrrolidine-2-carboxamide] | < 50 nM
COc1ccc(Oc2ccc(C(F)F)cn2)cc1NC(=O)C1CCC(=O)N1C (stereo not shown) [Compound 211, N-(5-((5-(Difluoromethyl)pyridin-2-yl)oxy)-2-methoxyphenyl)-1-methyl-5-oxopyrrolidine-2-carboxamide] | 50 to 300 nM
COc1ccc(Oc2ccc(C(F)F)cn2)cc1NC(=O)C1CNC(=O)N1C (stereo not shown) [Compound 212, N-(5-((5-(Difluoromethyl)pyridin-2-yl)oxy)-2-methoxyphenyl)-3-methyl-2-oxoimidazolidine-4-carboxamide] | 50 to 300 nM
CN1C(=O)NCC1C(=O)Nc1cc(Oc2ccc(C(F)F)cc2)cc2c1OCC2 (stereo not shown) [Compound 213, N-(5-(4-(Difluoromethyl)phenoxy)-2,3-dihydrobenzofuran-7-yl)-3-methyl-2-oxoimidazolidine-4-carboxamide] | < 50 nM
CN1C(=O)CC[C@H]1C(=O)Nc1cc(Oc2ccc(C(F)F)cc2)cc2c1OCC2 [Compound 214, (S)—N-(5-(4-(Difluoromethyl)phenoxy)-2,3-dihydrobenzofuran-7-yl)-1-methyl-5-oxopyrrolidine-2-carboxamide] | < 50 nM
CN1C(=O)CC[C@@H]1C(=O)Nc1cc(Oc2ccc(C(F)F)cc2)cc2c1OCC2 [Compound 215, (R)—N-(5-(4-(Difluoromethyl)phenoxy)-2,3-dihydrobenzofuran-7-yl)-1-methyl-5-oxopyrrolidine-2-carboxamide] | < 50 nM
CN1C(=O)NC[C@H]1C(=O)Nc1cc(Oc2ccc(C(F)(F)F)cn2)cc2ccoc12 [Compound 216, (S)-3-Methyl-2-oxo-N-(5-((5-(trifluoromethyl)pyridin-2-yl)oxy)benzofuran-7-yl)imidazolidine-4-carboxamide] | < 50 nM
CN1C(=O)NC[C@@H]1C(=O)Nc1cc(Oc2ccc(C(F)(F)F)cn2)cc2ccoc12 [Compound 217, (R)-3-Methyl-2-oxo-N-(5-((5-(trifluoromethyl)pyridin-2-yl)oxy)benzofuran-7-yl)imidazoledine-4-carboxamide] | < 50 nM
CN1C(=O)NC[C@H]1C(=O)Nc1cc(Oc2ccc(C(F)(F)F)cn2)cc2c1ncn2C [Compound 218, (S)-3-Methyl-N-(1-methyl-6-((5-(trifluoromethyl)pyridin-2-yl)oxy)-1H-benzo-[d]imidazol-4-yl)-2-oxoimidazolidine-4-carboxamide] | 50 to 300 nM
COc1ccc(Oc2ccc(Cl)c(Cl)c2)cc1NC(=O)C1CCC(=O)N1C (stereo not shown) [Compound 222, N-(5-(3,4-Dichlorophenoxy)-2-methoxyphenyl)-1-methyl-5-oxopyrrolidine-2-carboxamide] | < 50 nM
COc1ccc(Oc2ccc(F)c(Cl)c2)cc1NC(=O)C1CCC(=O)N1C (stereo not shown) [Compound 223, N-(5-(3-Chloro-4-fluorophenoxy)-2-methoxyphenyl)-1-methyl-5-oxo-pyrrolidine-2-carboxamide] | < 50 nM
CN1C(=O)CCC1C(=O)Nc1cc(Oc2ccc(F)c(F)c2)ccc1-c1nnco1 (stereo not shown) [Compound 224, N-(5-(3,4-Difluorophenoxy)-2-(1,3,4-oxadiazol-2-yl)phenyl)-1-methyl-5-oxopyrrolidine-2-carboxamide] | 301 to 2000 nM
CN1C(=O)CCC1C(=O)Nc1cc(Oc2ccc(C(F)(F)F)cc2)cc2cn[nH]c12 (stereo not shown) [Compound 225, 1-Methyl-5-oxo-N-(5-(4-(trifluoromethyl)phenoxy)-1H-indazol-7-yl)-pyrrolidine-2-carboxamide] | 301 to 2000 nM
COc1ccc(Oc2ccc(C(F)(F)F)cc2)cc1NC(=O)[C@@H]1CN(C)C(=O)N1C [Compound 226, (S)—N-(2-Methoxy-5-(4-(trifluoromethyl)phenoxy)phenyl)-1,3-dimethyl-2-oxoimidazolidine-4-carboxamide] | < 50 nM
COc1ccc(Oc2ccc(C(F)(F)F)cc2)cc1NC(=O)[C@H]1CN(C)C(=O)N1C [Compound 227, (R)—N-(2-Methoxy-5-(4-(trifluoromethyl)phenoxy)phenyl)-1,3-dimethyl-2-oxoimidazolidine-4-carboxamide] | < 50 nM

The next lines start with the values.

IC50 | Structure (SMILES)
301 to 2000 nM | COc1ccc(Oc2ccc(C(F)(F)F)cc2)cc1NC(=O)C1CN(C)C(=O)C1O (stereo not shown) [Compound 228, 4-Hydroxy-N-(2-methoxy-5-(4-(trifluoromethyl)phenoxy)phenyl)-1-methyl-5-oxopyrrolidine-3-carboxamide]
< 50 nM | COc1ccc(Oc2ccc(C(F)(F)F)cc2)cc1NC(=O)C1CCC(=O)N1C(=O)C1CCC(=O)N1 (stereo not shown) [Compound 229, N-(2-Methoxy-5-(4-(trifluoromethyl)phenoxy)phenyl)-5-oxo-1-(5-oxopyrrolidine-2-carbonyl)pyrrolidine-2-carboxamide]
< 50 nM | COc1ccc(Oc2ccc(C(F)(F)F)cc2)cc1NC(=O)C1CCC(=O)N1C(=O)C1CCC(=O)N1C (stereo not shown) [Compound 230, N-(2-Methoxy-5-(4-(trifluoromethyl)phenoxy)phenyl)-1-(1-methyl-5-oxo-pyrrolidine-2-carbonyl)-5-oxopyrrolidine-2-carboxamide]
< 50 nM | COc1ccc(Oc2ccc(C(F)(F)F)cc2)cc1NC(=O)C1CCC(=O)N1C(=O)C1CC(=O)N1 (stereo not shown) [Compound 231, N-(2-Methoxy-5-(4-(trifluoromethyl)phenoxy)phenyl)-5-oxo-1-(4-oxoazetidine-2-carbonyl)pyrrolidine-2-carboxamide]
50 to 300 nM | COc1ccc(Oc2ccc(F)c(F)c2)cc1NC(=O)C1CCC(=O)N1C(=O)C1CC(=O)N1 (stereo not shown) [Compound 232, N-(5-(3,4-difluorophenoxy)-2-methoxyphenyl)-5-oxo-1-(4-oxoazetidine-2-carbonyl)pyrrolidine-2-carboxamide]
50 to 300 nM | CN1C(=O)CCC1C(=O)Nc1cc(Oc2cccc(C(F)(F)F)c2)cc2c1OCCO2 (stereo not shown) [Compound 233, 1-Methyl-5-oxo-N-(7-(3-(trifluoromethyl)phenoxy)-2,3-dihydrobenzo[b][1,4]dioxin-5-yl)pyrrolidine-2-carboxamide]
301 to 2000 nM | Cc1c(Oc2cccc(C(F)(F)F)c2)cc(NC(=O)C2CCC(=O)N2C)c2c1OCCO2 (stereo not shown) [Compound 236, 1-Methyl-N-(8-methyl-7-(3-(trifluoromethyl)phenoxy)-2,3-dihydrobenzo[b]-[1,4]dioxin-5-yl)-5-oxopyrrolidine-2-carboxamide]
< 50 nM | CN1C(=O)CCC1C(=O)Nc1cc(Oc2ccc(C(F)(F)F)cc2)cc2c1OCC2 (stereo not shown) [Compound 237, 1-Methyl-5-oxo-N-(5-(4-(trifluoromethyl)phenoxy)-2,3-dihydrobenzofuran-7-yl)pyrrolidine-2-carboxamide]
50 to 300 nM | CN1C(=O)CCC1C(=O)Nc1cc(OCc2cccc(C(F)(F)F)c2)cc2c1OCC2 (stereo not shown) [Compound 238, 1-Methyl-5-oxo-N-(5-((3-(trifluoromethyl)benzyl)oxy)-2,3-dihydrobenzofuran-7-yl)pyrrolidine-2-carboxamide]
< 50 nM | CN1C(=O)CCC1C(=O)Nc1cc(Oc2ccc(F)c(F)c2)cc2c1OCC2 (stereo not shown) [Compound 239, N-(5-(3,4-Difluorophenoxy)-2,3-dihydrobenzofuran-7-yl)-1-methyl-5-oxopyrro-lidine-2-carboxamide]

Reference: patent US20240246908A1 (ORION CORPORATION, priority 2021, published 2024)
